Assay results published in ChEMBL document CHEMBL1144036, “Bornyl (3,4,5-trihydroxy)-cinnamate--an optimized human neutrophil elastase inhibitor designed by free energy calculations” (Bioorg Med Chem, 2008).
pIC50: −log10 of the molar value.

Target: T1, Neutrophil elastase (Homo sapiens, UniProt P08246)
T1 sequence (P08246 whole entry): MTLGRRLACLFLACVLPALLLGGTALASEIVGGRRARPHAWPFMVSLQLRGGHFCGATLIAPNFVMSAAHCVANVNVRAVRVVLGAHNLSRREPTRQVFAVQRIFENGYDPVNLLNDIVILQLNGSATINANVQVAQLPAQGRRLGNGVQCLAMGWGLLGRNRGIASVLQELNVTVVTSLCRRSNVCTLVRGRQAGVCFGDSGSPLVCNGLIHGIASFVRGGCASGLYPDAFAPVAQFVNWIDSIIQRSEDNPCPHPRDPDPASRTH
Test: Inhibition of human neutrophil elastase

Row | pIC50 | SMILES
1 | 6.27 | CC1(C)C2CC[C@]1(C)C(OC(=O)/C=C/c1cc(O)c(O)c(O)c1)C2 (some centres not stated)
2 | 5.81 | CC1(C)C2CC[C@]1(C)C(OC(=O)/C=C/c1ccc(O)c(O)c1)C2 (some centres not stated)
